Data reported in ChEMBL document CHEMBL2034839, “Pharmacophore Refinement Guides the Rational Design of Nanomolar-Range Inhibitors of the Botulinum Neurotoxin Serotype A Metalloprotease” (ACS Med Chem Lett, 2010).
pKi: −log10 of the molar value. The source made the active and inactive calls. The rule behind the calls is not given here.

Key:
[1] = target: Botulinum neurotoxin type A (Clostridium botulinum, UniProt P0DPI0); test: Inhibition of Clostridium botulinum BoNT/A light chain assessed as inhibition of SNAP-25 (187-203) substrate hydrolysis by RP-HPLC-based assay in presence of excess Zn(II)
Chain of Botulinum neurotoxin type A (P0DPI0 2-448 limits assumed): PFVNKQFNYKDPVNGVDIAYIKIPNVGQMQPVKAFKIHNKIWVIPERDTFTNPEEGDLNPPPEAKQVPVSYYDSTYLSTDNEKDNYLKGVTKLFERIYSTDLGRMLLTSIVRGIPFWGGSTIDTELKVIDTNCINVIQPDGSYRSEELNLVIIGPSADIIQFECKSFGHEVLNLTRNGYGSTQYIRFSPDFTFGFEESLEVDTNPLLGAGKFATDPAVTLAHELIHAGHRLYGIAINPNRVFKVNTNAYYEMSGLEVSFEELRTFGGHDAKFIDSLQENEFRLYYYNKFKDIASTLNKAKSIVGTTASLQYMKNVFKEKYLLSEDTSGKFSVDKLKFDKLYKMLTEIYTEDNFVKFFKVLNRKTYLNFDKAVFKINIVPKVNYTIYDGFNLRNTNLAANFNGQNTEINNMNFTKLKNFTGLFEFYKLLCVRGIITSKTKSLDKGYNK

[2] = target: Botulinum neurotoxin type A (Clostridium botulinum) (UniProt P0DPI0); test: Competitive inhibition of Clostridium botulinum BoNT/A light chain assessed as inhibition of SNAP-25 (187-203) substrate hydrolysis by Dixon plot analysis
Chain of Botulinum neurotoxin type A (Clostridium botulinum) (P0DPI0 2-448 limits assumed): as above

| SMILES | pKi [1] | inhibition [2] |
| --- | --- | --- |
| O=C(NCCCCNc1ccnc2cc(Cl)ccc12)c1cc(NC(=O)c2ccc(C(=O)Nc3cc(C(=O)NCCCCNc4ccnc5cc(Cl)ccc45)cc(C4=NCCN4)c3)cc2)cc(C2=NCCN2)c1 | 6.05 | Active |
| CCCCNC(=O)c1cc(NC(=O)c2ccc(C(=O)Nc3cc(C(=O)NCCCC)cc(C4=NCCN4)c3)cc2)cc(C2=NCCN2)c1 | 5.07 | – |
| O=C(NCCCNc1ccnc2cc(Cl)ccc12)c1cc(NC(=O)c2ccc(C(=O)Nc3cc(C(=O)NCCCNc4ccnc5cc(Cl)ccc45)cc(C4=NCCN4)c3)cc2)cc(C2=NCCN2)c1 | 6.24 | Active |
| O=C(NCCNc1ccnc2cc(Cl)ccc12)c1cc(NC(=O)c2ccc(C(=O)Nc3cc(C(=O)NCCNc4ccnc5cc(Cl)ccc45)cc(C4=NCCN4)c3)cc2)cc(C2=NCCN2)c1 | 5.67 | Active |
